Laboratory results reported in patent publication US12338237B2, “Derivatives having 1,2,3,4-tetrahydronaphthalene moiety or pharmaceutically acceptable salt thereof and pharmaceutical compositions comprising the same” (YUHAN CORPORATION, priority 2019, dated 2025).
Like-named read-outs stand apart in the source and are kept apart here.

What was measured:
GM1 production = test: cells; type: cell-based
[1] = molecular target: glucosylceramide synthase (GCS) (Homo sapiens (Human), UniProt Q16739); test: Evaluation of inhibitory activities against GCS (enzyme reaction with A549 cell lysate, NBD C6-ceramide, HPLC fluorescence); type: biochemical; conditions: GCS activity in A549 cell lysate, 37° C. for 90 minutes
Chain of glucosylceramide synthase (GCS) (Q16739 whole entry, looked up): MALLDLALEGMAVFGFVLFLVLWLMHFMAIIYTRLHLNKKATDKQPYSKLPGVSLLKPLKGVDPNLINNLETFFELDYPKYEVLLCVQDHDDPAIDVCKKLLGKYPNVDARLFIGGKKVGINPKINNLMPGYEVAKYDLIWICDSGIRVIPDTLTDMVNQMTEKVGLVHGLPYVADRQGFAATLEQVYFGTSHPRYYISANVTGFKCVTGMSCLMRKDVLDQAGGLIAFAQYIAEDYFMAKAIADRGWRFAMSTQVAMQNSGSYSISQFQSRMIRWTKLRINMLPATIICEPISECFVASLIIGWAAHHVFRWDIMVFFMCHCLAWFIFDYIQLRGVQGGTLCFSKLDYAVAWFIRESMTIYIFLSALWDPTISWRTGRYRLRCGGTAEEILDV
Method in brief: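 Lysate of A549 cells in 50 mM HEPES pH 7.3 incubated with test compound and NBD C6-ceramide at 37 °C for 90 min; lipids extracted with chloroform/methanol and GlcCer and ceramide peaks quantified by HPLC fluorescence. Activity from GlcCer area fraction, normalised between DMSO and ibiglustat controls.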

Compound | IC50 (GM1 production; Homo sapiens, Jurkat, 72 h) [nM] | IC50 [1] [nM] | IC50 (GM1 production; read-out: IC50) [nM]
O=C(NC1CCCc2ccc(-c3ccc(F)cc3F)cc21)O[C@@H]1CN2CCC1CC2 (stereo partly drawn) [Example 65, (S)-quinuclidin-3-yl (7-(2,4-difluorophenyl)-1,2,3,4-tetrahydronaphthalen-1-yl)carbamate] | 95.5 | 14.2 | 
O=C(NC1CCCc2cc(-c3ccc4c(c3)OCC4)ccc21)O[C@@H]1CN2CCC1CC2 (stereo partly drawn) [Example 44, (S)-quinuclidin-3-yl (6-(2,3-dihydrobenzofuran-6-yl)-1,2,3,4-tetrahydronaphthalen-1-yl)carbamate] | 480 | 7.59 | 
COc1ccc(OC)c(-c2ccc3c(c2)CCC(C)(C)C3NC(=O)O[C@@H]2CN3CCC2CC3)c1 (stereo partly drawn) [Example 135, (S)-quinuclidin-3-yl (6-(2,5-dimethoxyphenyl)-2,2-dimethyl-1,2,3,4-tetrahydronaphthalen-1-yl)carbamate] | 8.3 | 2.81 | 
COCCOc1ccc(-c2ccc3c(c2)CCC2(CC2)C3NC(=O)O[C@@H]2CN3CCC2CC3)cc1 (stereo partly drawn) [Example 194, (S)-quinuclidin-3-yl (6′-(4-(2-methoxyethoxy)phenyl)-3′,4′-dihydro-1′H-spiro[cyclopropane-1,2′-naphthalen]-1′-yl)carbamate] | 7.92 | 1.03 | 
CC1(C)CCc2cc(-c3cc(F)ccc3F)ccc2C1NC(=O)O[C@@H]1CN2CCC1CC2 (stereo partly drawn) [Example 103, (S)-quinuclidin-3-yl (6-(2,5-difluorophenyl)-2,2-dimethyl-1,2,3,4-tetrahydronaphthalen-1-yl)carbamate] | 0.997 | 0.95 | 
Cc1ccccc1-c1ccc2c(c1)C(NC(=O)O[C@@H]1CN3CCC1CC3)CCC2 (stereo partly drawn) [Example 74, (S)-quinuclidin-3-yl (7-(o-tolyl)-1,2,3,4-tetrahydronaphthalen-1-yl)carbamate] | 54.4 | 14.4 | 
CC1(C)CCc2cc(-c3cccc(Cl)c3)ccc2C1NC(=O)O[C@@H]1CN2CCC1CC2 (stereo partly drawn) [Example 91, (S)-quinuclidin-3-yl (6-(3-chlorophenyl)-2,2-dimethyl-1,2,3,4-tetrahydronaphthalen-1-yl)carbamate] | 2.86 | 0.81 | 
COc1ccc(-c2ccc3c(c2)CCC2(CC2)C3NC(=O)O[C@@H]2CN3CCC2CC3)cc1OC (stereo partly drawn) [Example 213, (S)-quinuclidin-3-yl (6′-(3,4-dimethoxyphenyl)-3′,4′-dihydro-1′H-spiro[cyclopropane-1,2′-naphthalen]-1′-yl)carbamate] | 145 | 34.2 | 
O=C(NC1CCCc2ccc(-c3ccc(F)c(F)c3F)cc21)O[C@@H]1CN2CCC1CC2 (stereo partly drawn) [Example 69, (S)-quinuclidin-3-yl (7-(2,3,4-trifluorophenyl)-1,2,3,4-tetrahydronaphthalen-1-yl)carbamate] | 220 | 40.5 | 
CC(C)c1cccc(-c2ccc3c(c2)CCCC3NC(=O)O[C@@H]2CN3CCC2CC3)c1 (stereo partly drawn) [Example 40, (S)-quinuclidin-3-yl (6-(3-isopropylphenyl)-1,2,3,4-tetrahydronaphthalen-1-yl)carbamate] | 218 | 1.77 | 
COc1ccc(-c2cc3c(cc2OC)C(NC(=O)O[C@@H]2CN4CCC2CC4)C(C)(C)CC3)cc1F (stereo partly drawn) [Example 233, (S)-quinuclidin-3-yl (6-(3-fluoro-4-methoxyphenyl)-7-methoxy-2,2-dimethyl-1,2,3,4-tetrahydronaphthalen-1-yl)carbamate] | 21.7 | 0.65 | 
COCOc1ccc(-c2ccc3c(c2)CCC(C)(C)C3NC(=O)O[C@@H]2CN3CCC2CC3)cc1 (stereo partly drawn) [Example 113, (S)-quinuclidin-3-yl (6-(4-(methoxymethoxy)phenyl)-2,2-dimethyl-1,2,3,4-tetrahydronaphthalen-1-yl)carbamate] | 0.964 | 0.94 | 
Cc1ccc(-c2ccc3c(c2)CCCC3NC(=O)O[C@@H]2CN3CCC2CC3)cc1 (stereo partly drawn) [Example 14, (S)-quinuclidin-3-yl (6-(p-tolyl)-1,2,3,4-tetrahydronaphthalen-1-yl)carbamate] | 61.8 | 8.8 | 
CCOc1ccc(-c2ccc3c(c2)CCC(C)(C)C3NC(=O)O[C@@H]2CN3CCC2CC3)cc1F (stereo partly drawn) [Example 144, (S)-quinuclidin-3-yl (6-(4-ethoxy-3-fluorophenyl)-2,2-dimethyl-1,2,3,4-tetrahydronaphthalen-1-yl)carbamate] | 1.6 | 1.39 | 
O=C(NC1CCCc2cc(-c3ccncc3F)ccc21)O[C@@H]1CN2CCC1CC2 (stereo partly drawn) [Example 49, (S)-quinuclidin-3-yl (6-(3-fluoropyridin-4-yl)-1,2,3,4-tetrahydronaphthalen-1-yl)carbamate] | 412 | 35 | 
CC1(C)CCc2cc(-c3ccccc3F)ccc2C1NC(=O)O[C@@H]1CN2CCC1CC2 (stereo partly drawn) [Example 94, (S)-quinuclidin-3-yl (6-(2-fluorophenyl)-2,2-dimethyl-1,2,3,4-tetrahydronaphthalen-1-yl)carbamate] | 3.1 | 0.97 | 
COc1cccc(OC)c1-c1ccc2c(c1)CCC1(CC1)C2NC(=O)O[C@@H]1CN2CCC1CC2 (stereo partly drawn) [Example 212, (S)-quinuclidin-3-yl (6′-(2,6-dimethoxyphenyl)-3′,4′-dihydro-1′H-spiro[cyclopropane-1,2′-naphthalen]-1′-yl)carbamate] | 221 | 104 | 
O=C(NC1CCCc2cc(-c3ccnc4[nH]ccc34)ccc21)O[C@@H]1CN2CCC1CC2 (stereo partly drawn) [Example 54, (S)-quinuclidin-3-yl (6-(1H-pyrrolo[2,3-b]pyridin-4-yl)-1,2,3,4-tetrahydronaphthalen-1-yl)carbamate] | 216 | 61.8 | 
CCc1ccccc1-c1ccc2c(c1)CCCC2NC(=O)O[C@@H]1CN2CCC1CC2 (stereo partly drawn) [Example 41, (S)-quinuclidin-3-yl (6-(2-ethylphenyl)-1,2,3,4-tetrahydronaphthalen-1-yl)carbamate] | 292 | 9.08 | 
O=C(NC1c2cc(-c3ccc(OC(F)(F)F)cc3)ccc2CCC12CC2)O[C@@H]1CN2CCC1CC2 (stereo partly drawn) [Example 174, (S)-quinuclidin-3-yl (7′-(4-(trifluoromethoxy)phenyl)-3′,4′-dihydro-1′H-spiro[cyclopropane-1,2′-naphthalen]-1′-yl)carbamate] | 39.3 | 4.35 | 
COCCOc1ccccc1-c1ccc2c(c1)CCCC2NC(=O)O[C@@H]1CN2CCC1CC2 (stereo partly drawn) [Example 29, (S)-quinuclidin-3-yl (6-(2-(2-methoxyethoxy)phenyl)-1,2,3,4-tetrahydronaphthalen-1-yl)carbamate] | 156 | 8.52 | 
O=C(NC1c2ccc(-c3ccc(Cl)cc3)cc2CCC12CC2)O[C@@H]1CN2CCC1CC2 (stereo partly drawn) [Example 187, (S)-quinuclidin-3-yl (6′-(4-chlorophenyl)-3′,4′-dihydro-1′H-spiro[cyclopropane-1,2′-naphthalen]-1′-yl)carbamate] | 35.5 | 13.9 | 
COc1ccc(-c2ccc3c(c2)CCC2(CC2)C3NC(=O)O[C@@H]2CN3CCC2CC3)cc1 (stereo partly drawn) [Example 215, (S)-quinuclidin-3-yl (6′-(4-methoxyphenyl)-3′,4′-dihydro-1′H-spiro[cyclopropane-1,2′-naphthalen]-1′-yl) carbamate] |  | 2.35 | 57.3
